Assay results from ChEMBL document CHEMBL1201862, “PubChem BioAssay data set” (2004).
Active and inactive are the calls of the source.

How the values were obtained:
HeLa = experiment: viability loss in HeLa cells – cell-based, ATP luminescence, cherry-pick samples, cytotoxicity control, dose response (AID 687004); type: functional; conditions: Homo sapiens
BJ [1] = experiment: BJ-TERT fibroblast viability loss – cell-based, RAS-independent, luminescence, dose response (AID 1933); type: functional; conditions: Homo sapiens
cells = type: functional, cell-based
[2] = alpha-synuclein stem-loop translation blockers – luminescence, H4 neuroglioblastoma cells, dose confirmation, confirmation (AID 2454); type: functional, cell-based;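 further: H4 neuroglioblastoma cells carrying an alpha-synuclein 5'UTR luciferase reporter; potency for inhibition of the luciferase signal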
BJ [3] = experiment: growth inhibition of engineered Ras-driven BJ cells – cell-based, alamar blue fluorescence, cherrypicked samples, dose response (AID 2631); type: functional; conditions: Homo sapiens;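 further: confirmatory dose-response assay in RAS-dependent BJ fibroblasts engineered with TERT, LT and ST, with cytotoxicity read by fluorescence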
HEK293 = experiment: EBV LMP1 TES2 canonical NF-kB signalling blockers – cell-based, HEK293, luciferase, cherry-pick, dose response (AID 588343); type: functional; conditions: Homo sapiens
[4] = luciferase reporter signal suppression in cells – H4 neuroglioma cells, luminescence, dose response (AID 1990); type: functional, cell-based
[5] = alpha-synuclein stem-loop luciferase translation blockers – H4 neuroglioma cells, luminescence, confirmation (AID 1988); type: functional, cell-based
[6] = Luminescence Cell-Based Dose Response HTS to Identify Inhibitors of 5'UTR Stem-Loop Driven Prion Protein mRNA Translation in H4 Neuroglioblastoma Cells. [Related pubchem assays: 1827 (Project Summary), 1813 (Primary HTS)]; type: functional
INS1 = experiment: INS-1E survival protection against cytokine death – cell-based, luminescence, retest, dose response (AID 449756); type: functional; conditions: Rattus norvegicus;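 further: cell death triggered by IL-1 beta plus TNF-alpha plus IFN-gamma mixture; protective hits raise ATP signal compared with cytokine alone wells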
Streptococcus = experiment: GAS UMAA2166 growth inhibition – luminescence, BacTiterGlo, counter-screen for streptokinase expression inhibitor project, dose response (AID 1915); type: functional, organism-based;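 further: potency for reduction of bacterial viability or growth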
[7] = target: Heat shock protein HSP 90-alpha (Homo sapiens, UniProt P07900); type: functional, organism-based
[8] = general mammalian cell viability loss – inhibitor set, cherry-pick, set 2, cytotoxicity control for miR-122 modulator project, dose response (AID 720697); type: functional, cell-based
[9] = activation of miR-122 Renilla sensor silencing – cell-based, Huh7 psiCHECK-miR122, Renilla luciferase, cherry-picked, dose response (AID 651956); type: functional;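 further: huh7 hepatoma cells stably carrying a psiCHECK-2 miR-122 sensor plasmid; renilla luciferase signal reporting endogenous miR-122 activity after 48 h compound exposure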
BJ [10] = experiment: BJ-TERT-LT-ST fibroblast viability loss – cell-based, RAS-independent, luminescence, dose response (AID 1935); type: functional; conditions: Homo sapiens;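 further: BJ fibroblasts immortalized with TERT plus LT and ST oncogenes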
[11] = DRD fibroblast viability loss – cell-based, non-viral oncogenic, luminescence, dose response (AID 1934); type: functional; conditions: Homo sapiens
BJ [12] = experiment: cells; type: functional, cell-based; conditions: Homo sapiens
[13] = tested on: Streptococcus sp. 'group A'; experiment: Streptococcus pyogenes SK(-)GAS viability under kanamycin – luminescence, BacTiterGlo, confirmation, counter-screen for streptokinase expression inhibitor project, dose response (AID 1900); type: functional, organism-based
Streptokinase A = target: T1, Streptokinase A (Streptococcus pyogenes serotype M1, UniProt P10520); experiment: viability-normalized secreted streptokinase activity reduction – plasminogen activation absorbance, OD405, dose response (AID 1914); type: functional, Streptococcus pyogenes M1 GAS;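 further: secreted streptokinase activity via plasminogen activation per viability signal from cell pellet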
T1 sequence (P10520 whole entry): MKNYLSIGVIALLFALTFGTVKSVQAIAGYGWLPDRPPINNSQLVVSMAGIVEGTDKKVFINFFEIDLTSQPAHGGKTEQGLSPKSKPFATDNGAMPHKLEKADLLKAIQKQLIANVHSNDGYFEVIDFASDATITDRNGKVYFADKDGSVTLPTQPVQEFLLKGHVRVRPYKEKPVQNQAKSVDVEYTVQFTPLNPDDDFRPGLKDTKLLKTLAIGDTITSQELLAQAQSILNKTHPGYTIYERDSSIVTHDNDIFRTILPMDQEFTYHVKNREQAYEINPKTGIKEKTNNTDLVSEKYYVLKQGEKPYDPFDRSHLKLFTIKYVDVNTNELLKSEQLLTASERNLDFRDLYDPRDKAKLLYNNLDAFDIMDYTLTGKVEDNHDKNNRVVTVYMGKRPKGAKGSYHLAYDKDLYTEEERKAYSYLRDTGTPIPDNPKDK

[14] = luciferase reporter signal reduction – luminescence, H4-C neuroglioblastoma cells, dose response (AID 2458); type: functional, cell-based;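 further: H4 neuroglioblastoma cells stably carrying a luciferase reporter gene fusion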
[15] = general mammalian cell viability loss – activator set, cherry-pick, cytotoxicity control for miR-122 modulator project, dose response (AID 720690); type: functional, cell-based;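 further: HEK293T human cells scored for general mammalian cytotoxicity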
Kallikrein-7 = Kallikrein-7 (Homo sapiens, UniProt P49862); experiment: Fluorescence Intensity-based biochemical primary high throughput dose response assay to identify activators of kallikrein-7 (K7) zymogen.
[16] = optical artefact potency, substrate without enzyme – biochemical, fluorescence intensity, triplicate, artefact control for kallikrein-7 zymogen activator project, dose response (AID 720493)
Caspase-6 = target: T2, Caspase-6 (Homo sapiens, UniProt P55212); experiment: inhibition of CASP6 peptide cleavage – biochemical, VEID-R110 fluorescence, cherry-pick, dose response (AID 720632)
T2 sequence (P55212 whole entry): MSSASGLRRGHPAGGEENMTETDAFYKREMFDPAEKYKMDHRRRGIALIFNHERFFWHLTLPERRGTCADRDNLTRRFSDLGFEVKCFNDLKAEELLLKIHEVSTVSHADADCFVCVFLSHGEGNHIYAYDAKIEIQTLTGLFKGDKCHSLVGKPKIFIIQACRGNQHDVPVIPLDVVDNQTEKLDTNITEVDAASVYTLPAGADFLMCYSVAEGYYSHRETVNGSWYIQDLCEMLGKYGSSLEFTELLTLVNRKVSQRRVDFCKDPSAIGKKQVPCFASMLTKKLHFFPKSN

[17] = A549 cell cytotoxicity, dose response, cytotoxicity control, plate reader, cherry-pick, antagonist series (AID 743412); type: functional, cell-based
[18] = blockade of melanocortin 4 receptor signaling – cell-based, plate reader, cherry pick, counter-screen for LGR2 antagonist project, dose response (AID 743444); type: functional;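 further: transfected HEK 293 cells stimulated with alpha-MSH peptide; potency of inhibitors of the alpha-MSH evoked signal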
A549 = experiment: viability loss in A549 cells – cell-based, plate reader, cherry-pick samples, cytotoxicity control, dose response (AID 687028); type: functional; conditions: Homo sapiens
Caspase-9 = Caspase-9 (Homo sapiens, UniProt P55211); experiment: inhibitors of purified CASP9 protease – biochemical, fluorescence, plate reader, cherry-picked samples, selectivity assay for caspase-6 inhibitor project, dose response (AID 743293)
[19] = blockers of bursicon-stimulated LGR2 cAMP reporter – cell-based, HEK293, CRE-luciferase reporter, cherry pick, set 2, dose response (AID 743343); type: functional;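 further: transfected cells were stimulated with diluted bursicon conditioned medium after compound addition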
[20] = toxicity toward HepG2 liver cells – cell-based, plate reader, cherry-pick, antagonist series, cytotoxicity control, dose response (AID 743416); type: functional
Caspase-7 = Caspase-7 (Homo sapiens, UniProt P55210); experiment: caspase-7 enzyme inhibition, selectivity check – biochemical, DEVD-R110 fluorescence, cherry-pick, selectivity assay for caspase-6 inhibitor project, dose response (AID 743295); type: functional
[21] = target: T3, Apoptotic protease-activating factor 1 (Homo sapiens, UniProt O14727); type: functional
T3 sequence (O14727 whole entry): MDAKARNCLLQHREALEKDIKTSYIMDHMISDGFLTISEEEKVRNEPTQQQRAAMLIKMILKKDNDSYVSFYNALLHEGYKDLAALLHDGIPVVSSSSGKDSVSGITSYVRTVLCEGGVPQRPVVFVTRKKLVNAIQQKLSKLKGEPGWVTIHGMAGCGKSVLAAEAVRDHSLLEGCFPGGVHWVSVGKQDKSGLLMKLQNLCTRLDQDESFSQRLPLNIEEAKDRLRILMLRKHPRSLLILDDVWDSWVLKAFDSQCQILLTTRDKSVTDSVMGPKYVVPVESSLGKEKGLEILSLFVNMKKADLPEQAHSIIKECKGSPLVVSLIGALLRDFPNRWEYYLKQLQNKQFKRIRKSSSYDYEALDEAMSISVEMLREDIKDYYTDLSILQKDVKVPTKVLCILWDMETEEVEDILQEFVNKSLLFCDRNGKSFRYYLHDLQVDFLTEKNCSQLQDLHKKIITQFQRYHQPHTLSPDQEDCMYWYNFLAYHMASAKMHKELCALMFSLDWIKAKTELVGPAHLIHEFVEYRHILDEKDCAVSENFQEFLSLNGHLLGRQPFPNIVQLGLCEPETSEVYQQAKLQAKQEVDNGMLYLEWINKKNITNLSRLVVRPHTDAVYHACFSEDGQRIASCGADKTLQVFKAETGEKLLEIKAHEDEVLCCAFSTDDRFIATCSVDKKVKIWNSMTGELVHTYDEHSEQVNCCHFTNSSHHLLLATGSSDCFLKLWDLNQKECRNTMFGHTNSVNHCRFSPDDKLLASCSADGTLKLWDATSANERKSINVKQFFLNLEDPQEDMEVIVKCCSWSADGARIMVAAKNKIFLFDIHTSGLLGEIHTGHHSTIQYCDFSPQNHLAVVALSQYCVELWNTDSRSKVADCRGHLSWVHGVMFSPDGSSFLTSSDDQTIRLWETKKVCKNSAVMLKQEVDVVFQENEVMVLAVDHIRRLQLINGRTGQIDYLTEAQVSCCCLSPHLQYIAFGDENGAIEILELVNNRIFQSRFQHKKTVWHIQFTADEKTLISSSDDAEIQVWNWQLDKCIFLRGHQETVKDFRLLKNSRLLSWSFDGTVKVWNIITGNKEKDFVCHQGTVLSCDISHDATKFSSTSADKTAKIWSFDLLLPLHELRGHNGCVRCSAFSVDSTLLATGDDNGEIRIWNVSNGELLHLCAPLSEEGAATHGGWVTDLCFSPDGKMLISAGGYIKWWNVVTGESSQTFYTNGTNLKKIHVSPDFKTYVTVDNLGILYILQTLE

Nonstructural protein 1 = Nonstructural protein 1 (Influenza A virus, UniProt Q194T2); type: functional, Influenza A virus (A/California/07/2009(H1N1))
[22] = target: T4, DNA repair protein RAD52 homolog (Homo sapiens, UniProt P43351); type: functional, biochemical
T4 sequence (P43351 whole entry): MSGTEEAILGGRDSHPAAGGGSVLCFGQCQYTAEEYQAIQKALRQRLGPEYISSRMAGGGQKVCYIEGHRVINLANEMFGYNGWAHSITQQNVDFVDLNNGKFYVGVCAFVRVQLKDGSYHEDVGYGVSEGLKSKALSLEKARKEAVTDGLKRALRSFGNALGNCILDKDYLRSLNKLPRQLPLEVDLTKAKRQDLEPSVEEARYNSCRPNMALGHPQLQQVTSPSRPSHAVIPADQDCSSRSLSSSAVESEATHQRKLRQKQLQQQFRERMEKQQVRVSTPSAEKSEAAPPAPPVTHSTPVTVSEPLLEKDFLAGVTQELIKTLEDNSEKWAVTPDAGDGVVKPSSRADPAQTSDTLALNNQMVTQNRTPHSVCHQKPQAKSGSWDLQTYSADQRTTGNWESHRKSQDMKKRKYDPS

Caspase-8 = Caspase-8 (Homo sapiens, UniProt Q14790); experiment: inhibitors of purified CASP8 protease – biochemical, Z-IETD-R110 fluorescence, cherry-picked samples, selectivity assay for caspase-6 inhibitor project, dose response (AID 743294)
Mu-type opioid receptor = Mu-type opioid receptor (Homo sapiens, UniProt P35372); experiment: Late-stage results from the probe development effort to identify antagonists of OPRK1: luminescence-based cell-based dose response OPRM1 counterscreen.; type: functional
[23] = target: Delta-type opioid receptor (Homo sapiens, UniProt P41143); experiment: Late-stage results from the probe development effort to identify antagonists of OPRK1: fluorescence-based cell-based dose response OPRD1 counterscreen.; type: functional
[24] = viability loss in HepG2 hepatoma cells – cell-based, ATP luminescence, cherry-pick, activator set 2, cytotoxicity control, dose response (AID 1053143); type: functional

Nonstructural protein 1, sequence (Q194T2 whole entry): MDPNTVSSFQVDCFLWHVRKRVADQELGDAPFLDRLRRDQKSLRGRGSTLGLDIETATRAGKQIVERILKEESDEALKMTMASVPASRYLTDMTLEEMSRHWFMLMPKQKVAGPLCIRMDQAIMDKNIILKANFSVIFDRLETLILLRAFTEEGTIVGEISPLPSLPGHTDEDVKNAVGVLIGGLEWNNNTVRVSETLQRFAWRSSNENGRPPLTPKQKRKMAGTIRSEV
Caspase-8, sequence (Q14790 217-374 limits assumed): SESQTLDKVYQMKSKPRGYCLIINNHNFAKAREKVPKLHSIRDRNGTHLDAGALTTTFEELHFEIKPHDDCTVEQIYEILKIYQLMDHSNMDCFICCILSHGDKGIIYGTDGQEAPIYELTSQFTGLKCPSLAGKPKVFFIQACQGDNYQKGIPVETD
Caspase-8, sequence (Q14790 385-479 limits assumed): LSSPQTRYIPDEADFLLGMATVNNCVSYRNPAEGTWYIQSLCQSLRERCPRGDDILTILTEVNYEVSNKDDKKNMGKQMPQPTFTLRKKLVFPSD
Kallikrein-7, sequence (P49862 whole entry): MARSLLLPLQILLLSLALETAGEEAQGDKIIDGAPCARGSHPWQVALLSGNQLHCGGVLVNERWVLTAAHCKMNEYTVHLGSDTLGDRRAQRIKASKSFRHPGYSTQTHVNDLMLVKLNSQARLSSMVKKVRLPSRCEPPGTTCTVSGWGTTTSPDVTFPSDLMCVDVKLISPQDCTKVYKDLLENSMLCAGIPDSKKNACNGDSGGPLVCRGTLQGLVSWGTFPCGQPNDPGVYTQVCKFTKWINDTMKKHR
Caspase-9, sequence (P55211 1-315 limits assumed): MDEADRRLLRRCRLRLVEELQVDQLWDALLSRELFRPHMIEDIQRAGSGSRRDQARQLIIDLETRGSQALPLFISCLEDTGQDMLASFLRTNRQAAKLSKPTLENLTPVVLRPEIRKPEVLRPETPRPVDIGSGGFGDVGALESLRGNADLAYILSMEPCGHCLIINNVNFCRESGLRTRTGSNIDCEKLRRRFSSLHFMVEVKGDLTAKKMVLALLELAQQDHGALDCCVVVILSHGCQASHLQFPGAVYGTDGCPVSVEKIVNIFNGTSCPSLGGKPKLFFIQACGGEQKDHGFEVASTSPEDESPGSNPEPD
Caspase-9, sequence (P55211 331-416 limits assumed): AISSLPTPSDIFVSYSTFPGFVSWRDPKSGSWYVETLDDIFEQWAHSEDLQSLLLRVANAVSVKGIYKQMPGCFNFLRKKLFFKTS
Caspase-7, sequence (P55210 24-198 limits assumed): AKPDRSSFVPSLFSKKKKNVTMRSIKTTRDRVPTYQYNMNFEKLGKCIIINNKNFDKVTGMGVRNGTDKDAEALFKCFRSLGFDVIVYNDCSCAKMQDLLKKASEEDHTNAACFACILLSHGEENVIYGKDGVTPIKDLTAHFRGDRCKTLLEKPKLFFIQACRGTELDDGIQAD
Caspase-7, sequence (P55210 207-303 limits assumed): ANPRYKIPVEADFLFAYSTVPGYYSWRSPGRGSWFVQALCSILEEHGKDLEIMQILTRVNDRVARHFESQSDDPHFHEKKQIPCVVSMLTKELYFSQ
Mu-type opioid receptor, sequence (P35372 whole entry): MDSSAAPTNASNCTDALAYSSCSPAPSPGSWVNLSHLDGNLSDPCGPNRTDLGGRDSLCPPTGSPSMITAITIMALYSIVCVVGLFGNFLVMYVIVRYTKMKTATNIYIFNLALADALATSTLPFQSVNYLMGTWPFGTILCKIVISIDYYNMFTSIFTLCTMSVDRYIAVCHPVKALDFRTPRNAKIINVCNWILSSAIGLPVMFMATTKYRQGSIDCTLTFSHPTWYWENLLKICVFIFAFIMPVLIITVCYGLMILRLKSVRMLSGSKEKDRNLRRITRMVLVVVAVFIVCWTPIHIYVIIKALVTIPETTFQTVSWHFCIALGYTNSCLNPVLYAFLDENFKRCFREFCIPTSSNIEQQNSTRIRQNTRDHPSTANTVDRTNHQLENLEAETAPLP
Delta-type opioid receptor, sequence (P41143 whole entry): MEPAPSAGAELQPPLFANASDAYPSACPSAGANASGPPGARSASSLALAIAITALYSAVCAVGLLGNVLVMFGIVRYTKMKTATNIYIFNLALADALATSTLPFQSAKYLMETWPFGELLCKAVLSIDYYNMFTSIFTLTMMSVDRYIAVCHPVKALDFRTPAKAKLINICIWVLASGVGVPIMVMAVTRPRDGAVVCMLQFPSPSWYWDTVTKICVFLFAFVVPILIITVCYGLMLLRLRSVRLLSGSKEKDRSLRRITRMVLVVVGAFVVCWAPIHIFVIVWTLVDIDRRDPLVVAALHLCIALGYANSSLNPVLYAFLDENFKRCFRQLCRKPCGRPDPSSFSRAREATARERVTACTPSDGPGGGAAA

SMILES: COc1cccc(S(=O)(=O)Nc2ccc3c(c2)OC[C@H](C)NC[C@@H](C)[C@H](OC)CN(C)C3=O)c1
- AC50 (HeLa): > 52 µM (inactive)

SMILES: Cc1sc2ncnc(N/N=C/c3ccccc3O)c2c1C
- EC50 (BJ [1]): 5.5 µM (inconclusive)
- EC50 (cells): 1.22 µM (active)
- EC50 [2]: 0.993 µM (active)
- EC50 (BJ [3]): 4.53 µM (active)
- AC50 (HEK293): 9.16 µM (active)
- EC50 [4]: 7.52 µM (active)
- EC50 [5]: < 0.1 µM (active)
- EC50 [6]: 20.5 µM (active)
- AC50 (INS1): 0.642 µM (active)
- EC50 (Streptococcus): 6.53 µM (active)
- AC50 [7]: 2.1 µM (active)
- AC50 [8]: 1.19 µM (active)
- AC50 [9]: 8.43 µM (active)
- EC50 (BJ [10]): 5.79 µM (inconclusive)
- EC50 [11]: 3.5 µM (active)
- EC50 (BJ [12]): 4.2 µM (active)
- EC50 [13]: 1.97 µM (active)
- EC50 (Streptokinase A): 8.21 µM (active)
- EC50 [14]: 1.17 µM (active)
- AC50 [15]: 3.28 µM (active)

SMILES: CCC1CCCCN1Cc1c(O)ccc2c(=O)c(-c3ccccc3)coc12 (stereo not drawn)
- EC50 (Kallikrein-7): > 69.5 µM (inactive)
- EC50 [16]: > 7.72 µM (active)

SMILES: CN(C)CCCNc1cc(O)c2ncccc2c1
- AC50 (Caspase-6): 3.64 µM (active)
- AC50 [17]: 8.67 µM (active)
- AC50 [18]: 25.3 µM (active)
- AC50 (A549): 20.2 µM (active)
- AC50 (Caspase-9): > 70 µM (inactive)
- AC50 [19]: 32 µM (active)
- AC50 [20]: 7.93 µM (active)
- AC50 (Caspase-7): 7.56 µM (active)
- IC50 [21]: 15.8 µM (active)
- IC50 (Nonstructural protein 1): 4.57 µM (active)
- AC50 [22]: 1.15 µM (active)
- AC50 (Caspase-8): 42 µM (active)

SMILES: COC(=O)c1cc(Br)cnc1N1CCC(NC2CCCCC2OC)CC1 (stereo not drawn)
- IC50 (Mu-type opioid receptor): 12 µM (inactive)
- IC50 [23]: > 50 µM (inactive)

SMILES: O=C(/C=C/c1ccco1)Nc1cccnc1Cl
- AC50 [24]: > 52 µM (inactive)
